In ChEMBL document CHEMBL5150017, “Mechanism of Action and Structure-Activity Relationship of α-Conotoxin Mr1.1 at the Human α9α10 Nicotinic Acetylcholine Receptor” (J Med Chem, 2022):

Columns and labels:
[1] = molecular target: T1, Neuronal acetylcholine receptor; alpha9/alpha10 (Homo sapiens) (UniProt Q9UGM1+Q9GZZ6); test: Antagonist activity at human alpha9alpha10 nAChR expressed in Xenopus laevis oocytes assessed as inhibition of ACh-induced current amplitude at -80 mV holding potential at 10 uM by two-electrode voltage clamp method; format: cell-based; conditions: Oocyte
[2] = molecular target: T1, Neuronal acetylcholine receptor; alpha9/alpha10 (Homo sapiens); test: Antagonist activity at human alpha9alpha10 nAChR expressed in Xenopus laevis oocytes assessed as inhibition of ACh-induced current amplitude at -80 mV holding potential at 1 uM by two-electrode voltage clamp method; format: cell-based; conditions: Oocyte
[3] = molecular target: Neuronal acetylcholine receptor; alpha9/alpha10 (Homo sapiens, UniProt Q9GZZ6+Q9UGM1); test: Antagonist activity at human alpha9alpha10 nAChR expressed in Xenopus laevis oocytes assessed as inhibition of ACh-induced current amplitude at -80 mV holding potential by two-electrode voltage clamp method; format: cell-based, Oocyte
Neuronal acetylcholine receptor; alpha9/alpha10, sequence (Q9UGM1 whole entry): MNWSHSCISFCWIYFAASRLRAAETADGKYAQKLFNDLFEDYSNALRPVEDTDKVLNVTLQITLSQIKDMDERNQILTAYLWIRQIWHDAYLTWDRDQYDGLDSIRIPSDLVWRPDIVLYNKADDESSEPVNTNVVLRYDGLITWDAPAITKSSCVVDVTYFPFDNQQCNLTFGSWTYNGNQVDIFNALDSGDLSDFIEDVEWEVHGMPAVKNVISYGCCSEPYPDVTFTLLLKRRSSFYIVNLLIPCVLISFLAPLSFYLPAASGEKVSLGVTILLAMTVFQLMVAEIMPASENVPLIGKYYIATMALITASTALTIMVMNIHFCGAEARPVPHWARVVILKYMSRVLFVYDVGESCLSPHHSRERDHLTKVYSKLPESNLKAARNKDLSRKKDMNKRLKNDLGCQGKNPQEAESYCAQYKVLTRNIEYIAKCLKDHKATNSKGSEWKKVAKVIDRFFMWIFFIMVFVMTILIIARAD
Neuronal acetylcholine receptor; alpha9/alpha10, sequence (Q9GZZ6 whole entry): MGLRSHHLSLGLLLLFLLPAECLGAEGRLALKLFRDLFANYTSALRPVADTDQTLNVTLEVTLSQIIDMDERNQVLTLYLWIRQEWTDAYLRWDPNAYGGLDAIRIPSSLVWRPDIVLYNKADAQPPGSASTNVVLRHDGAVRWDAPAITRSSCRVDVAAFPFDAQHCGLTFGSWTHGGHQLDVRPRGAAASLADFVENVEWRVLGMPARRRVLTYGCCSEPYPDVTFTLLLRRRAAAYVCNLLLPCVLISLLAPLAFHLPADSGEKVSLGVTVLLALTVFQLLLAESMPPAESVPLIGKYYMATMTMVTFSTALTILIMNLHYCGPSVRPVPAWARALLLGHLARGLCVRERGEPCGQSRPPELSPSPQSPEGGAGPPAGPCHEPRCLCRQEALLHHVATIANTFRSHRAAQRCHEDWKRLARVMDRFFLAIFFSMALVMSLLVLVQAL

Structure (SMILES)	inhibition [1] [%]	inhibition [2] [%]	IC50 [3] [nM]
CC[C@H](C)[C@@H]1NC(=O)[C@H](CCC(=O)O)NC(=O)[C@@H]2CCCN2C(=O)[C@H](Cc2cnc[nH]2)NC(=O)[C@H](CC(=O)O)NC(=O)[C@H](Cc2ccc(O)cc2)NC(=O)[C@H](CC(N)=O)NC(=O)[C@@H]2CSSC[C@H](NC(=O)CN)C(=O)N[C@@H](CSSC[C@@H](C(N)=O)NC1=O)C(=O)N[C@@H](CO)C(=O)N[C@@H](CC(=O)O)C(=O)N1CCC[C@H]1C(=O)N[C@@H](CCCNC(=N)N)C(=O)N2	0	20	
N=C(N)NCCC[C@H](NC(=O)[C@H](CS)NC(=O)[C@H](CCCNC(=N)N)NC(=O)[C@H](Cc1ccc(O)cc1)NC(=O)[C@H](CCCNC(=N)N)NC(=O)[C@H](CS)NC(=O)[C@H](CCCNC(=N)N)NC(=O)[C@@H]1CCCN1C(=O)[C@H](CC(=O)O)NC(=O)[C@H](CO)NC(=O)[C@H](CS)NC(=O)[C@H](CS)NC(=O)CN)C(=O)O			500
